≈ marks a conversion by molar mass, not a printed value.
What was measured:
Escherichia coli [1] = details: E. coli ATCC 25922, QC organism; cited from earlier work
Pseudomonas aeruginosa [2] = details: P. aeruginosa ATCC 27853, QC organism; cited from earlier work
Escherichia coli [3] = experiment: Broth microdilution MIC (Example 12)
Klebsiella pneumoniae = experiment: Broth microdilution MIC (Example 12)
Pseudomonas aeruginosa [4] = experiment: Broth microdilution MIC (Example 12)
Acinetobacter baumannii = experiment: Broth microdilution MIC (Example 12)
S. aureus ATCC 29213 [5] = experiment: Broth microdilution MIC, ATCC QC organism (Example 12); format: cell-based, Staphylococcus aureus; details: S. aureus ATCC 29213, QC organism
Description: The in vitro activity of BisEDT and two additional bismuth-thiol investigational agents (MB-2B and MB-6) was determined for isolates of Escherichia coli, Klebsiella pneumoniae, Pseudomonas aeruginosa and Acinetobacter baumannii characterized for extended-spectrum β-lactamases (ESBL) and/or carbapenem resistance. In addition, vancomycin-intermediate Staphylococcus aureus (VISA) were evaluated. The majority of the isolates tested in the current study were multidrug-resistant (MDR) as defined by resistance to at least three different antibiotic classes. Susceptibility to the investigational compounds and relevant comparators was determined by broth microdilution conducted in accordance with guidelines from the Clinical and Laboratory Standards Institute (CLSI; 2,3).

S. aureus ATCC 29213 [6] = details: S. aureus ATCC 29213, QC organism; cited from earlier work
[7] = test system: vancomycin-intermediate Staphylococcus aureus (VISA); experiment: Broth microdilution MIC (Example 12)

## CC(C)(O/N=C(\C(=O)N[C@@H]1C(=O)N2C(C(=O)[O-])=C(C[n+]3ccccc3)CS[C@H]12)c1csc(N)n1)C(=O)O [CAZ]
Escherichia coli [1]
  MIC, QC range: (0.06-0.5) μg/mL
Pseudomonas aeruginosa [2]
  MIC, QC range: (1-4) μg/mL
Escherichia coli [3]; E. coli ATCC 25922, QC organism
  MIC: 0.25 µg/mL (≈ 0.457 µM)
Escherichia coli [3]; E. coli ATCC 35218, QC organism
  MIC: 0.12 µg/mL (≈ 0.22 µM)
Escherichia coli [3]; Escherichia coli ATCC 35218, ESBL
  MIC: 0.12 µg/mL (≈ 0.22 µM)
Escherichia coli [3]; Escherichia coli ATCC BAA-2471, NDM
  MIC: >64 µg/mL
Escherichia coli [3]; Escherichia coli CDC 114, ESBL/KPC
  MIC: >64 µg/mL
Escherichia coli [3]; Escherichia coli CDC 118, ESBL/NDM
  MIC: >64 µg/mL
Escherichia coli [3]; Escherichia coli CDC 435, NDM
  MIC: >64 µg/mL
Escherichia coli [3]; Escherichia coli CDC 451, KPC
  MIC: 64 µg/mL (≈ 117 µM)
Escherichia coli [3]; Escherichia coli CDC 503, ESBL/NDM
  MIC: >64 µg/mL
Escherichia coli [3]; Escherichia coli MMX 5745, KPC
  MIC: 32 µg/mL (≈ 58.5 µM)
Escherichia coli [3]; Escherichia coli MMX 5755, ESBL
  MIC: >64 µg/mL
Escherichia coli [3]; Escherichia coli MMX 5756, ESBL
  MIC: >64 µg/mL
Escherichia coli [3]; Escherichia coli MMX 5758, ESBL
  MIC: 16 µg/mL (≈ 29.3 µM)
Klebsiella pneumoniae; K. pneumoniae ATCC BAA-1705, QC organism
  MIC: >64 µg/mL
Klebsiella pneumoniae; Klebsiella pneumoniae ATCC BAA-1705, ESBL/KPC
  MIC: >64 µg/mL
Klebsiella pneumoniae; Klebsiella pneumoniae CDC 112, KPC
  MIC: >64 µg/mL
Klebsiella pneumoniae; Klebsiella pneumoniae CDC 113, ESBL/KPC
  MIC: >64 µg/mL
Klebsiella pneumoniae; Klebsiella pneumoniae CDC 115, ESBL/KPC
  MIC: >64 µg/mL
Klebsiella pneumoniae; Klebsiella pneumoniae CDC 120, ESBL/KPC
  MIC: >64 µg/mL
Klebsiella pneumoniae; Klebsiella pneumoniae CDC 126, ESBL/KPC
  MIC: 4 µg/mL (≈ 7.32 µM)
Klebsiella pneumoniae; Klebsiella pneumoniae CDC 129, ESBL/KPC
  MIC: >64 µg/mL
Klebsiella pneumoniae; Klebsiella pneumoniae CDC 135, ESBL/VIM
  MIC: >64 µg/mL
Klebsiella pneumoniae; Klebsiella pneumoniae CDC 138, ESBL/NDM
  MIC: >64 µg/mL
Klebsiella pneumoniae; Klebsiella pneumoniae CDC 158, ESBL/NDM/OXA
  MIC: >64 µg/mL
Klebsiella pneumoniae; Klebsiella pneumoniae MMX 9029, ESBL
  MIC: 4 µg/mL (≈ 7.32 µM)
Pseudomonas aeruginosa [4]; P. aeruginosa ATCC 27853, QC organism
  MIC: 2 µg/mL (≈ 3.66 µM)
Pseudomonas aeruginosa [4]; Pseudomonas aeruginosa CDC 230, VIM/OXA
  MIC: 64 µg/mL (≈ 117 µM)
Pseudomonas aeruginosa [4]; Pseudomonas aeruginosa CDC 231, KPC/OXA
  MIC: >64 µg/mL
Pseudomonas aeruginosa [4]; Pseudomonas aeruginosa CDC 241, IMP/OXA
  MIC: >64 µg/mL
Pseudomonas aeruginosa [4]; Pseudomonas aeruginosa CDC 246, NDM/OXA
  MIC: >64 µg/mL
Pseudomonas aeruginosa [4]; Pseudomonas aeruginosa CDC 250, NDM/OXA
  MIC: >64 µg/mL
Pseudomonas aeruginosa [4]; Pseudomonas aeruginosa CDC 356, KPC
  MIC: 64 µg/mL (≈ 117 µM)
Pseudomonas aeruginosa [4]; Pseudomonas aeruginosa CDC 439, IMP
  MIC: >64 µg/mL
Pseudomonas aeruginosa [4]; Pseudomonas aeruginosa CDC 444, VIM
  MIC: 32 µg/mL (≈ 58.5 µM)
Pseudomonas aeruginosa [4]; Pseudomonas aeruginosa CDC 457, VIM
  MIC: >64 µg/mL
Pseudomonas aeruginosa [4]; Pseudomonas aeruginosa CDC 516, KPC/AmpC
  MIC: 64 µg/mL (≈ 117 µM)
Pseudomonas aeruginosa [4]; Pseudomonas aeruginosa CDC 518, KPC/AmpC
  MIC: 32 µg/mL (≈ 58.5 µM)
Acinetobacter baumannii; Acinetobacter baumannii CDC 273, ESBL/OXA
  MIC: 64 µg/mL (≈ 117 µM)
Acinetobacter baumannii; Acinetobacter baumannii CDC 274, ESBL/OXA
  MIC: >64 µg/mL
Acinetobacter baumannii; Acinetobacter baumannii CDC 275, ESBL/OXA
  MIC: >64 µg/mL
Acinetobacter baumannii; Acinetobacter baumannii CDC 277, ESBL/OXA
  MIC: >64 µg/mL
Acinetobacter baumannii; Acinetobacter baumannii CDC 284, ESBL/OXA
  MIC: 64 µg/mL (≈ 117 µM)
Acinetobacter baumannii; Acinetobacter baumannii CDC 307, OXA
  MIC: 64 µg/mL (≈ 117 µM)
Acinetobacter baumannii; Acinetobacter baumannii CDC 308, ESBL/OXA
  MIC: 64 µg/mL (≈ 117 µM)
Acinetobacter baumannii; Acinetobacter baumannii CDC 311, OXA
  MIC: >64 µg/mL
Acinetobacter baumannii; Acinetobacter baumannii CDC 312, OXA
  MIC: >64 µg/mL
Acinetobacter baumannii; Acinetobacter baumannii CDC 313, ESBL/OXA
  MIC: >64 µg/mL
Acinetobacter baumannii; Acinetobacter baumannii NCTC 13304, OXA
  MIC: >64 µg/mL

## CCC[C@@H]1C[C@@H](C(=O)N[C@@H]([C@H]2O[C@H](SC)[C@H](O)[C@@H](O)[C@H]2O)[C@H](C)Cl)N(C)C1 [CLI]
S. aureus ATCC 29213 [5]
  MIC: 0.25 µg/mL (≈ 0.588 µM)
S. aureus ATCC 29213 [6]
  MIC, QC range: (0.06-0.25) μg/mL
[7]; Staphylococcus aureus NRS 1 (hVISA)
  MIC: >8 µg/mL
[7]; Staphylococcus aureus NRS 2
  MIC: >8 µg/mL
[7]; Staphylococcus aureus NRS 3
  MIC: >8 µg/mL
[7]; Staphylococcus aureus NRS 4
  MIC: >8 µg/mL
[7]; Staphylococcus aureus NRS 13
  MIC: 0.06 µg/mL (≈ 0.141 µM)
[7]; Staphylococcus aureus NRS 18
  MIC: >8 µg/mL
[7]; Staphylococcus aureus NRS 22
  MIC: >8 µg/mL
[7]; Staphylococcus aureus NRS 24 (hVISA)
  MIC: >8 µg/mL
[7]; Staphylococcus aureus NRS 27
  MIC: >8 µg/mL

Reference: patent US12186283B2, “Bismuth-thiol compositions and methods of use” (Microbion Corporation, priority 2018, dated 2025)
